Assay results reported in publication PMC12315900, “A twist in the tale: shifting from covalent targeting of a tyrosine in JAK3 to a lysine in MK2” (RSC Medicinal Chemistry, 2025).

What was measured:
JAK3 [1] = molecular target: T1, JAK3 (Homo sapiens, UniProt P52333); test: biochemical
T1 sequence (P52333 1-1124): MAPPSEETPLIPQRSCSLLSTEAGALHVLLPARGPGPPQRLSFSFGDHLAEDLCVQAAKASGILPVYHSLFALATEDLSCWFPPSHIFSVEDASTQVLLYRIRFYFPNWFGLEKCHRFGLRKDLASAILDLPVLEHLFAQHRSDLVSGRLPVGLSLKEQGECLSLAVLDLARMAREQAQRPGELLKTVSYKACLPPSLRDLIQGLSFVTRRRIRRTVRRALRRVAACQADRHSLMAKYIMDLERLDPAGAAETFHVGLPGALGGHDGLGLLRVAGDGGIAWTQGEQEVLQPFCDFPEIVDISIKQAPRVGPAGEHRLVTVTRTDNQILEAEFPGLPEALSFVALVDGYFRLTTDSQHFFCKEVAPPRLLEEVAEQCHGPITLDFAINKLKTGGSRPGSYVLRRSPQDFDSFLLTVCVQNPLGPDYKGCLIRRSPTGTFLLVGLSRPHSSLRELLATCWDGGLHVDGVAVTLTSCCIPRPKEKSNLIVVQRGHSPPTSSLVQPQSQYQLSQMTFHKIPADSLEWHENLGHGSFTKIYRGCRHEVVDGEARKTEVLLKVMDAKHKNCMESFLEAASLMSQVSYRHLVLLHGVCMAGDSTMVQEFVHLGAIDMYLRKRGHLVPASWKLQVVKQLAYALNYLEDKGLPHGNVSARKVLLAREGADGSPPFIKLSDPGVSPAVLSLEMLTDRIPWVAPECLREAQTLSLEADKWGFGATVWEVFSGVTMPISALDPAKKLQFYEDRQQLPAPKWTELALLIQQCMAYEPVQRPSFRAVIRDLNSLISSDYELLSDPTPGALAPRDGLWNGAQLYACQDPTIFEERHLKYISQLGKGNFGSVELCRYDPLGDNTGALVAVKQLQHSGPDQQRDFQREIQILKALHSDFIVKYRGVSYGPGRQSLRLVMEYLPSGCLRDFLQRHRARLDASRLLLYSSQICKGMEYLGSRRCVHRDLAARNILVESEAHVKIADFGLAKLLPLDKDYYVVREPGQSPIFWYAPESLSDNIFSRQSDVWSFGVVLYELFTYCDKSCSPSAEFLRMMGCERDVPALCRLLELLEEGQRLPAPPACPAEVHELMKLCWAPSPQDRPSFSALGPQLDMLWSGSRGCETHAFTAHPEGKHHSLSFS

solubility observation = assay type: physicochemical
Source text: While the warhead now cannot rotate away anymore, it also is very limited in the trajectory it can assume prior to/during the bond-forming event. On the other hand, the tyrosine side chain is also a rather rigid structure (especially considering the degrees of freedom of cysteine or e.g. lysine in comparison) and if two very rigid structures are supposed to react with each other, a proper pre-orientation and a binding mode that enables a strain-free reaction trajectory play a much bigger role than for the reaction of two more flexible moieties like, for example, acrylamide and cysteine.

JAK3 [2] = molecular target: T1, JAK3; conditions: JAK3 ELISA, same assay conditions (starting at 10 μM)
MK2 [3] = test system: MK2; design: method as in PMID 24900358; conditions: @100 μM ATP; cited from earlier work
MK2 [4] = molecular target: MK2 (Homo sapiens, UniProt P49137); test: biochemical
Sequence of MK2 (Homo sapiens, UniProt P49137) (P49137 whole entry): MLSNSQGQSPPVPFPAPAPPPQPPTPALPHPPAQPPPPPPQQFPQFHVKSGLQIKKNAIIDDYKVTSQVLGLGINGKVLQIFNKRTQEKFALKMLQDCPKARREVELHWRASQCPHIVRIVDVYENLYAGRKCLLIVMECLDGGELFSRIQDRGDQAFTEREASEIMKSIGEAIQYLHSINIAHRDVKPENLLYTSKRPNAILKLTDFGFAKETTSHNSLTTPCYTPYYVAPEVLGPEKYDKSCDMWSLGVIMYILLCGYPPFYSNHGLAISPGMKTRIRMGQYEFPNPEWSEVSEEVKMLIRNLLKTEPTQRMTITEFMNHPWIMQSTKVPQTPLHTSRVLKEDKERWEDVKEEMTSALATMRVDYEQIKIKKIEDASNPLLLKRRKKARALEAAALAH

MK2 [5] = molecular target: T2, MK2 (Homo sapiens, UniProt P49137, DEL216-236/P237G); test: intact protein MS with MK2 (covalent modification); conditions: for Ratio [%] (AUC[mod]/(AUC[unmod]+AUC[mod])): 50 µM protein, 250 µM compound, room temperature, 3 hours, relative quantification from deconvoluted spectra; for covalent modification of MK2 (covalent binding): 5-fold excess compound over MK2, rt, 3 h
T2 sequence (P49137 with tags, fused parts or gaps DEL216-236/P237G): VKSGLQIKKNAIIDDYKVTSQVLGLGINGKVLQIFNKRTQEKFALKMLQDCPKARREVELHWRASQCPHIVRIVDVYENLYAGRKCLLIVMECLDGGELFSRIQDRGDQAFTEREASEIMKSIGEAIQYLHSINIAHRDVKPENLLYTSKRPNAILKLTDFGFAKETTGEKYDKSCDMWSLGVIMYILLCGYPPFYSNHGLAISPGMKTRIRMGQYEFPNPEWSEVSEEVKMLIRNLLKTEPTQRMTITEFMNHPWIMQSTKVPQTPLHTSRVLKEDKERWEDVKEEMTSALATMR
Experimental: using a NanoDrop 2000 spectrophotometer (Thermo Scientific), with molar extinction coefficient
and molecular weight specified using the "other protein (E & MW)" setting.
at 4 °C for 24 hours. For the negative control, an equivalent volume of DMSO was added to the
protein solution. To quench the reaction, 0.1% formic acid in the double-distilled water (ddH₂O)
was added in a 1:10 ratio (v/v), followed by desalting of the samples using C8 stage tips with the
MS data acquisition was carried out on a Time-of-Flight (TOF)
LC/MS system (Agilent 6200 series) equipped with a positive electrospray ionization (ESI) source.
A volume of 5 µL of the desalted sample was injected for mass spectrometry (MS) analysis. To
prevent cross-sample contamination, blank injections were run between each sample. Data were
deconvoluted and analyzed using Agilent’s MassHunter Bioconfirm software, applying a scan
range of 600–2000 m/z, a mass range of 10–100 kDa, a mass step of 1 Da, and a baseline
at room temperature for 3 hours. For the negative control, an equivalent volume of DMSO was
added to the protein solution. To quench the reaction, 0.1% formic acid in the double -distilled
water (ddH₂O) was added in a 1:10 ratio (v/v), followed by desalting of the samples using C8 stage
The UHPLC-system consisted of an Agilent
(G1316C) and a valve drive (G1170A) equipped with a 2-pos 6-port valve for online desalting of the
samples. Mobile phase A (water + 0.1 % (v/v) formic acid) and mobile phase B (acetonitrile + 0.1
% (v/v) formic acid) were used for gradient elution on a BIOshell Protein C4 HPLC column (5 cm x
2.1 mm, 3.4 μm, 400 Å; Merck, Darmstadt, Germany). The flow rate was set to 1.0 mL/min with
the following gradient settings: 0−0.2 min: 10 % B, 0.2−2.2 min: 10−80 % B, 2.2−3 min: 80 % B,
whole analysis. The UHPLC-system was coupled to a TripleTOF 5600+ mass spectrometer from
Sciex (Darmstadt, Germany) using a Duospray ion source in positiveionization mode and the
following source and MS parameters: curtain gas (CUR): 30 psi, nebulizing gas (GS1): 50 psi,
heater gas (GS2): 40 psi, ion spray floating voltage (ISVF): 5500 V, source temperature (TEM): 450
°C, collision energy (CE): 30 V, declustering potential (DP): 230 V. The acquisition was performed
in the TOF mode of the mass spectrometer using a mass range from 100 to 5000 m/z with an
accumulation time of 100 ms. Moreover, the IntactProteinMode -script from Sciex was used to
optimize MS settings for protein analysis. The Analyst TF 1.8.1 software and the PeakView
software 2.2.0 (both Sciex) were used for data acquisition and data analysis, respectively. Mass
spectra were deconvoluted using the BioToolKit 2.2.0 software package.
Relative quantification was performed with the area under curve (AUC) of each protein species in
the deconvoluted mass spectra with the PeakView software’s integration tool.
𝑅𝑎𝑡𝑖𝑜 [%] = 𝐴𝑈𝐶[𝑚𝑜𝑑] × 100

MK2 [6] = molecular target: T2, MK2; test: kinact/KI from time- and concentration-dependent intact protein MS
Experimental: Determination of Kinetic Parameters
kinact/KI was measured based on time- and concentration-dependent analysis of intact protein
mass spectra using the bimolecular model described by the equations seen below, as reported
[PI]: concentration of the protein-compound complex, [PI*]: concentration
of the covalent protein-compound complex, [PI*] ≈ [PI] if kinact is relatively high. [P]0, [I]0:
concentration of initial protein and compound. t: incubation time(s).
When reaching each time point of incubation
(15 min, 30 min, 60 min, 120 min, 180 min), an aliquot of the reaction mixture was transferred into
1 % formic acid in ddH2O using a multichannel pipette (10 µL of sample added to 90 µL
ddH2O/1% formic acid), to stop the reaction at the exact time point. MS was performed and %
occupancy was calculated in the same way (see equations below).
time- and concentration -dependent % occupancy: import data as XY table. A nonlinear
regression fit was chosen to fit the curves, kinact/KI was set up as the constraint type of “Shared
value for all datasets”, initial value as 0, the rest settings are as default.
𝑂𝑐𝑐𝑢𝑝𝑎𝑛𝑐𝑦 [%] = 𝐼𝑚𝑜𝑑 × 100
[𝑃𝐼 ] = [𝑃]0[𝐼]0 ([𝑃] −[𝐼] )×𝑘 /𝐾 ×𝑡
𝑂𝑐𝑐𝑢𝑝𝑎𝑛𝑐𝑦 [%] = [𝑃𝐼] × 100

[7] = buffer stability at pH 7.4 (HPLC); assay type: physicochemical; conditions: pH 7.4, over the incubation time

Q: With `N#Cc1cccc(-c2cn(C3CCCCC3)c3c2cnc2[nH]ccc23)c1` [compound 6] as the molecule, how does the IC50 (JAK3 [1]) read?
A: 5.2 nM

Q: Which solubility (solubility observation) does the source give for `O=c1c2cc(OS(=O)(=O)F)ccc2c2cnc3[nH]ccc3c2n1C1CCCCC1` [compound 35] here?
A: low solubility

Q: What about the inhibitory activity (JAK3 [2]) of the same molecule?
A: no relevant inhibitory activity

Q: Which results are given for `O=C(c1ccc(-c2ccc(Cl)cc2)o1)N(Cc1ccccn1)c1ccc(N2CCNCC2)cc1` [compound 41, reference compound]?
A: IC50 (MK2 [3]): 110 nM; IC50 (MK2 [4]): > 5000 nM

Q: What does the source list for `O=C(c1ccc(-c2ccc(Cl)c(OS(=O)(=O)F)c2)o1)N(Cc1ccccn1)c1ccc(N2CCNCC2)cc1` [compound 42]?
A: Ratio [%] (AUC[mod]/(AUC[unmod]+AUC[mod])) (MK2 [5]): 94.28%; covalent modification of MK2 (covalent binding) (MK2 [5]): 95%; kinact/KI (MK2 [6]): 1.12 M⁻¹ s⁻¹

Q: With `O=C(c1ccc(-c2ccc(Cl)cc2)o1)N(Cc1ccccn1)c1ccc(N2CCNCC2)c(OS(=O)(=O)F)c1` [compound 43] as the molecule, how does the “covalent modification of MK2 (covalent binding)” value (MK2 [5]) read?
A: no binding at all

Q: For `CC(C)(C)OC(=O)N1CCN(c2ccc(NC(=O)c3ccc(-c4ccc(Cl)cc4)o3)cc2S(=O)(=O)F)CC1` [compound 64], which buffer stability [7] is on record?
A: some degradation

Q: What about the “covalent modification of MK2 (covalent binding)” value (MK2 [5]) of the same molecule?
A: 15%

Q: Which results are given for `O=C(c1ccc(-c2ccc(Cl)cc2)o1)N(Cc1ccccn1)c1ccc(N2CCNCC2)c(S(=O)(=O)F)c1` [compound 65]?
A: Ratio [%] (AUC[mod]/(AUC[unmod]+AUC[mod])) (MK2 [5]): 14.51%; covalent modification of MK2 (covalent binding) (MK2 [5]): 15%

Q: For `O=C(c1ccc(-c2ccc(Cl)c(O)c2)o1)N(Cc1ccccn1)c1ccc(N2CCNCC2)cc1` [compound 66], which IC50 (MK2 [4]) is on record?
A: > 5000 nM

Q: With `O=C(c1ccc(-c2ccc(Cl)cc2)o1)N(Cc1ccccn1)c1ccc(N2CCNCC2)c(O)c1` [compound 67] as the molecule, how does the IC50 (MK2 [4]) read?
A: > 5000 nM
